Reference: ChEMBL document CHEMBL1121758, “(-)-4-Hydroxymorphinanones: their synthesis and analgesic activity” (1981)
The source made the active and inactive calls. The calls are words filed in the database; no cut-off is given here.

Key:
Rattus norvegicus [1] = test: Agonist activity (administered subcutaneously) determined by rat tail flick test; format: functional; conditions: sc
Mus musculus = species on record: Mus musculus; test: Antinociceptive activity determined in acetic acid induced mouse writhing test; format: functional
Rattus norvegicus [2] = test: Antagonist activity (administered subcutaneously) determined by rat tail flick test; format: functional; conditions: sc
Rattus norvegicus [3] = test: Antagonist activity (administered subcutaneously) determined by rat tail flick test; Inactive at 10 mg/kg; format: functional, organism-based; set-up: dose 10 mg/kg

SMILES | ED50 (Rattus norvegicus [1]) | ED50 (Mus musculus) | ED50 (Rattus norvegicus [2]) | ED50 (Rattus norvegicus [3])
CN1CC[C@]23c4c5ccc(O)c4O[C@H]2[C@@H](O)C=C[C@H]3[C@H]1C5.CN1CC[C@]23c4c5ccc(O)c4O[C@H]2[C@@H](O)C=C[C@H]3[C@H]1C5.O=S(=O)(O)O | 7.3 mg/kg | 0.8 mg/kg | – | –
O=C1CCC2C3Cc4cccc5c4C2(CCN3CC2CC2)C1O5 (centres undefined) | – | 0.06 mg/kg | 12.5 mg/kg | –
O=C1CCC2C3Cc4cccc(O)c4C2(CCN3CC2CC2)C1 (centres undefined) | – | 0.64 mg/kg | – | inactive
CN1CCC23CC(=O)CCC2C1Cc1ccc(O)cc13 (centres undefined) | 20 mg/kg | 0.15 mg/kg | – | –
COc1cccc2c1C13CCN(C)C(C2)C1CCC(=O)C3 (centres undefined) | – | 0.21 mg/kg | – | –
C=CCN1CC[C@]23c4c5ccc(O)c4O[C@H]2[C@@H](O)C=C[C@H]3[C@H]1C5 [NALORPHINE] | – | 1.22 mg/kg | 0.86 mg/kg | –
CN1CCC23CC(=O)CCC2C1Cc1cccc(O)c13 (centres undefined) | 19.2 mg/kg | 0.18 mg/kg | – | –
O=C1CCC2C3Cc4ccc(O)cc4C2(CCN3CC2CC2)C1 (centres undefined) | – | – | 2.3 mg/kg | –
